Data from ChEMBL document CHEMBL1201862, “PubChem BioAssay data set” (2004).
Active and inactive are the calls of the source.

Experiments:
cells = assay type: functional
Large T antigen = Large T antigen (Simian virus 40, UniProt P03070); assay type: functional, Betapolyomavirus macacae;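 note: Confirmatory-stage PubChem screen for compounds that inhibit SV40 T antigen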
[1] = microbe, parasite or virus in culture; assay type: functional; settings: Mycobacterium tuberculosis
[2] = biological target: T1, Calpain-2 catalytic subunit (Sus scrofa, UniProt P43367); assay: m-calpain protease blockers, concentration series – biochemical, fluorogenic peptide substrate, dose response (AID 1420); assay type: functional
T1 sequence (P43367 whole entry): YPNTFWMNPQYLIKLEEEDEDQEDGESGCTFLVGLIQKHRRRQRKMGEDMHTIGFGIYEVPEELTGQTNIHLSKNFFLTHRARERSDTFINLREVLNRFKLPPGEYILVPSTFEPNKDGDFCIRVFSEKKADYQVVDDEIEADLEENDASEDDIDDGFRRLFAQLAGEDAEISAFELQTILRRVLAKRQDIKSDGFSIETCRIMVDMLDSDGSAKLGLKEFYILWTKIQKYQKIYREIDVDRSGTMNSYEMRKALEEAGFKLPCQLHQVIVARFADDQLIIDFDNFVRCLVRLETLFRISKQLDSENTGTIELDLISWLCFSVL

Cytochrome P450 2C9 = Cytochrome P450 2C9 (Homo sapiens, UniProt P11712)
[3] = NIH3T3 cell viability loss – ATP luminescence, mouse fibroblasts, counter-screen, dose response (AID 2010); assay type: functional, cell-based;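 note: cells exposed to compound for about 90 hours before reading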
[4] = Trypanosoma cruzi growth suppression in host cells – NIH3T3 host cells, beta-gal luminescence, confirmation (AID 2044); assay type: functional, cell-based;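 note: intracellular parasites grown in NIH/3T3 mouse fibroblasts as host cells; luminescent beta-galactosidase reporter signal from transgenic T. cruzi replicating inside host cells; inhibitors lower the luminescence signal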
Leucine aminopeptidase = biological target: T2, Leucine aminopeptidase (Plasmodium falciparum 3D7, UniProt Q8IL11); assay: P. falciparum M17LAP inhibitors, primary screen, biochemical, fluorogenic H-Leu-NHMec substrate, 1536-well (AID 1619); assay type: functional
T2 sequence (Q8IL11 whole entry): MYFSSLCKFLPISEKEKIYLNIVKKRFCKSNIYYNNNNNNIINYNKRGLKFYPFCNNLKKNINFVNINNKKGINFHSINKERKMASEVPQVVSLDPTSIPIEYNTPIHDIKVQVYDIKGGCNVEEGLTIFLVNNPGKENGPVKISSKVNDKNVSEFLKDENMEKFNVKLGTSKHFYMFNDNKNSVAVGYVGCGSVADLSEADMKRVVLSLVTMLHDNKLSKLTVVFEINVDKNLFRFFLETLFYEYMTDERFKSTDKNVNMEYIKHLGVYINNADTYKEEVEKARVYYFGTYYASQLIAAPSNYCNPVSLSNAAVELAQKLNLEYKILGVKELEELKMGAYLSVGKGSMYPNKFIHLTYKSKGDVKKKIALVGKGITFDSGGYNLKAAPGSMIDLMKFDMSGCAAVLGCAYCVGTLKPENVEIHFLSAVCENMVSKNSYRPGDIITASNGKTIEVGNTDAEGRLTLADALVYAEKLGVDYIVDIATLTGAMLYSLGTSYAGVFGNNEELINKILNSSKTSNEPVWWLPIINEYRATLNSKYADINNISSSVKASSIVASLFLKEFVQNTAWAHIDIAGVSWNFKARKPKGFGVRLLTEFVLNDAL

[5] = biological target: T3, Heat shock factor protein 1 (Mus musculus, UniProt P38532); assay: decrease of HSF1-responsive luciferase luminescence – cell-based, NIH3T3, dose retest, confirmation (AID 2382); assay type: functional;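 note: NIH3T3 fibroblasts with HSF1-driven luciferase reporter stressed by proteasome inhibitor MG132; luminescence from HSF1-driven luciferase expression after 8 hours of MG132 stress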
T3 sequence (P38532 whole entry): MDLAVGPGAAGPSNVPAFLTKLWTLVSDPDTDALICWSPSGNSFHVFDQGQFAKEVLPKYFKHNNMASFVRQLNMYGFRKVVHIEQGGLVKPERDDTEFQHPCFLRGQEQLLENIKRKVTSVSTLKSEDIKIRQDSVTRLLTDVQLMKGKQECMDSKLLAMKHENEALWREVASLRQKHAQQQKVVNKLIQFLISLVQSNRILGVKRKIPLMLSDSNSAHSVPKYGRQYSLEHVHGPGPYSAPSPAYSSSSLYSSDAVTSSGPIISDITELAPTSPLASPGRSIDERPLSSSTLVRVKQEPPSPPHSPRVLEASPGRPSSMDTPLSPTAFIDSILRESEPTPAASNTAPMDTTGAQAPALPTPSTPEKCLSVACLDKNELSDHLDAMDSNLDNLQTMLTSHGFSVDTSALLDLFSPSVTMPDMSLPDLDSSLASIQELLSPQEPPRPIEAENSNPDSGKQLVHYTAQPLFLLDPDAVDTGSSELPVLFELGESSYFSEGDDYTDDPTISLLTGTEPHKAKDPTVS

[6] = luciferase reporter signal suppression in cells – H4 neuroglioma cells, luminescence, dose response (AID 1990); assay type: functional, cell-based
[7] = Luminescence Cell-Based Dose Response HTS to Identify Inhibitors of 5'UTR Stem-Loop Driven Prion Protein mRNA Translation in H4 Neuroglioblastoma Cells. [Related pubchem assays: 1827 (Project Summary), 1813 (Primary HTS)]; assay type: functional
[8] = alpha-synuclein stem-loop luciferase translation blockers – H4 neuroglioma cells, luminescence, confirmation (AID 1988); assay type: functional, cell-based
INS1 = assay: INS-1E survival protection against cytokine death – cell-based, luminescence, retest, dose response (AID 449756); assay type: functional; settings: Rattus norvegicus;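 note: cell death triggered by IL-1 beta plus TNF-alpha plus IFN-gamma mixture; protective hits raise ATP signal compared with cytokine alone wells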
[9] = fluconazole-exposed Candida albicans growth modulators – fluorescence, retest, confirmation (AID 2467); assay type: functional, cell-based
[10] = viability of HCT116 lacking mutant beta-catenin – cell-based, human colon tumor, dose response (AID 1045); assay type: functional;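 note: HCT116 colon tumor cells with beta catenin knocked out; cells exposed to compound for 60 hours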
[11] = viability of PTEN-deleted HCT116 cells – cell-based, HCT116 PTEN knockout, dose response (AID 1047); assay type: functional;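 note: HCT116 colon tumor cells with PTEN knocked out; cells exposed to compound for 60 hours before readout; potency for loss of cell viability measured by luminescence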
[12] = NIH-3T3 fibroblast cytotoxicity, dose response, cytotoxicity control, cell-based, fluorescence, Alamar Blue, secondary assay (AID 2327); assay type: functional;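 note: NIH-3T3 mouse fibroblasts cultured with fluconazole at 8 µg/mL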
Cytochrome P450 2C19 = Cytochrome P450 2C19 (Homo sapiens, UniProt P33261); assay: Cytochrome panel assay with activity outcomes. Panel member name: p450-cyp2c19 Compounds with AC50 equal or less than 10 uM are considered active; assay type: functional; settings: read-out: AC50
Cytochrome P450 3A4 = Cytochrome P450 3A4 (Homo sapiens, UniProt P08684);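 note: CYP3A4 tested as one member of a cytochrome P450 panel screen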
[13] = P. falciparum Dd2 growth inhibitors, dose response, SYBR Green, cherry-picked samples (AID 1159567); assay type: functional, cell-based
[14] = viability of uninfected HEp-2 cells – cell-based, HTS, cytotoxicity control for RSV inhibitor project, dose response (AID 2410); assay type: functional; settings: human respiratory syncytial virus
[15] = biological target: FAD-linked sulfhydryl oxidase ALR (Homo sapiens, UniProt P55789); assay: ALR-catalysed DTT oxidation blockers – biochemical, H2O2 detection, luminescence, cherry-pick, dose response (AID 493248)
Streptococcus = assay: GAS UMAA2166 growth inhibition – luminescence, BacTiterGlo, counter-screen for streptokinase expression inhibitor project, dose response (AID 1915); assay type: functional, organism-based;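 note: potency for reduction of bacterial viability or growth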
[16] = system: Streptococcus sp. 'group A'; assay: Streptococcus pyogenes SK(-)GAS viability under kanamycin – luminescence, BacTiterGlo, confirmation, counter-screen for streptokinase expression inhibitor project, dose response (AID 1900); assay type: functional, organism-based
Streptokinase A = biological target: T4, Streptokinase A (Streptococcus pyogenes serotype M1, UniProt P10520); assay: viability-normalized secreted streptokinase activity reduction – plasminogen activation absorbance, OD405, dose response (AID 1914); assay type: functional, Streptococcus pyogenes M1 GAS;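 note: secreted streptokinase activity via plasminogen activation per viability signal from cell pellet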
T4 sequence (P10520 whole entry): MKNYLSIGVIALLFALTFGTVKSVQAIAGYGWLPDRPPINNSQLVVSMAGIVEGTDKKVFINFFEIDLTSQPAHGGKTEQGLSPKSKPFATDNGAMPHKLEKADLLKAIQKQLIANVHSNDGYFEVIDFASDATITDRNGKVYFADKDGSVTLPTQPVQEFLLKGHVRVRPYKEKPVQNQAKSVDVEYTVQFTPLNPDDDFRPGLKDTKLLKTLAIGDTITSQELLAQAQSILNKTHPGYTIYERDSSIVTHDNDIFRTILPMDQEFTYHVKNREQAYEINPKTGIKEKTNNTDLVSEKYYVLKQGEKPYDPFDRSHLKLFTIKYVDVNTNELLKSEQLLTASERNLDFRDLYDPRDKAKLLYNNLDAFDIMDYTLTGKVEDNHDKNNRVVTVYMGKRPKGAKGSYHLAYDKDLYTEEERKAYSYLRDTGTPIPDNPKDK

Sequence of Cytochrome P450 2C9 (P11712 whole entry): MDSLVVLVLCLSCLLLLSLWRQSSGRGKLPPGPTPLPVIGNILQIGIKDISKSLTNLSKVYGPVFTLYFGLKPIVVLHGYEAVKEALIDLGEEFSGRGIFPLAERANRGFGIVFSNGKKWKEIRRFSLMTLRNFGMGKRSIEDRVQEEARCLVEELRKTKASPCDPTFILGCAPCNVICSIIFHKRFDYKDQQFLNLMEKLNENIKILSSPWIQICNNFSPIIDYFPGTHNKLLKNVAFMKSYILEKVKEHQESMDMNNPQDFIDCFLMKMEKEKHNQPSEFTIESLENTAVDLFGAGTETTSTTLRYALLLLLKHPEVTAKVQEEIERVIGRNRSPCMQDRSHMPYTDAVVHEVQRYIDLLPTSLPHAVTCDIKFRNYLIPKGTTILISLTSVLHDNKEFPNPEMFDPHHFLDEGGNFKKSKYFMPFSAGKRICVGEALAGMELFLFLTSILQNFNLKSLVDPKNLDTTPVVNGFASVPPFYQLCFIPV
Sequence of Large T antigen (P03070 whole entry): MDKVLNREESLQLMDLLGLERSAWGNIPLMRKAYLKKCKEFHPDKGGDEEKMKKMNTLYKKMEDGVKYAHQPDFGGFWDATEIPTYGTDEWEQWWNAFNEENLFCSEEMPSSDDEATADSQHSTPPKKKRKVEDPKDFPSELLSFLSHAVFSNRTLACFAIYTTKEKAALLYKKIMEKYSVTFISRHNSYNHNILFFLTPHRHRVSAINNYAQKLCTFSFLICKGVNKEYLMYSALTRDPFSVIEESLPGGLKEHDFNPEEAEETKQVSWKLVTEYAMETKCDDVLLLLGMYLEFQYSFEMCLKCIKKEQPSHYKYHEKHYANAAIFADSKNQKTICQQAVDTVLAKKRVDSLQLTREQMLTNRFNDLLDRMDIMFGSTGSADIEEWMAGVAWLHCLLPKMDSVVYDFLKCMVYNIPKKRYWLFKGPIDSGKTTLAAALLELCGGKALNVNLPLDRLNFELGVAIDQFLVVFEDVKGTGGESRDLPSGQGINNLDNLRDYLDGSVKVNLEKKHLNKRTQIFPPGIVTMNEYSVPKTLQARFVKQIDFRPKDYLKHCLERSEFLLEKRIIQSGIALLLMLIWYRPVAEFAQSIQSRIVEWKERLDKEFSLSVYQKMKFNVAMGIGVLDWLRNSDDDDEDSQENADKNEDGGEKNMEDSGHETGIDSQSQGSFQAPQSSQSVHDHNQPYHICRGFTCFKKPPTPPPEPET
Sequence of FAD-linked sulfhydryl oxidase ALR (P55789 whole entry): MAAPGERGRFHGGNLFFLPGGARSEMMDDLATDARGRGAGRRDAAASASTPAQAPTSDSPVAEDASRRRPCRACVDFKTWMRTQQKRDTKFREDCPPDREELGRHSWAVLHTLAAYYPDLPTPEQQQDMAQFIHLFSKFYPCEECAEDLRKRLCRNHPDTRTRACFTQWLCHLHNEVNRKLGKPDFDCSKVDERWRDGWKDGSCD
Sequence of Cytochrome P450 2C19 (P33261 whole entry): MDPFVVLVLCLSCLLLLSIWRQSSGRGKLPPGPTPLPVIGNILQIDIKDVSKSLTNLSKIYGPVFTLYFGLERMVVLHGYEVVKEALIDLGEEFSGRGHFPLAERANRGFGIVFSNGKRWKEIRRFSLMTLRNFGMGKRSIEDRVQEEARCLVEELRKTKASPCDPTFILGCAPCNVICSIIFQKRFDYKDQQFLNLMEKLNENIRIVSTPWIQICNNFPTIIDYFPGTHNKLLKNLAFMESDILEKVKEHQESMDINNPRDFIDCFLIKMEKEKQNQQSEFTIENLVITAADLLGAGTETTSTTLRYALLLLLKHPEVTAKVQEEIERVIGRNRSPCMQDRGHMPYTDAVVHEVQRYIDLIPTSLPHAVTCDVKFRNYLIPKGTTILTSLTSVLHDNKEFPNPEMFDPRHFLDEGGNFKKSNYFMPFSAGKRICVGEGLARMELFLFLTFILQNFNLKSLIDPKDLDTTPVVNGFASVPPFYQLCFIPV
Sequence of Cytochrome P450 3A4 (P08684 whole entry): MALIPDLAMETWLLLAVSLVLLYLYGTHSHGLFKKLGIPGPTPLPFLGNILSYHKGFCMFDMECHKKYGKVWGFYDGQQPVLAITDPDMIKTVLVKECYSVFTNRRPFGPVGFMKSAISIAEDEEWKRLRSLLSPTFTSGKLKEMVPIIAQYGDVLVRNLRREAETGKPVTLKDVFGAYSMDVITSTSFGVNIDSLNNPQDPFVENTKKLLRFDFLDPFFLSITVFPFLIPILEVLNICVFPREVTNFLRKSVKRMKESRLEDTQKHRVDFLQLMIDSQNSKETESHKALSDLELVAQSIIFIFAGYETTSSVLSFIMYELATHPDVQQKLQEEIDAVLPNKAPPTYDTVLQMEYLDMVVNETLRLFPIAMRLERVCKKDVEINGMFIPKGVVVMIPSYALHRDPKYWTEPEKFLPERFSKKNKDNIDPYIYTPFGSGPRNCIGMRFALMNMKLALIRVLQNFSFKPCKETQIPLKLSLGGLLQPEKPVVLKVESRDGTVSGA

Oc1oc(-c2ccco2)nc1/C=N/c1cccc(Cl)c1
IC50 (cells): > 50 µM (active)

Nc1nc2ccc(O)cc2s1
IC50 (Large T antigen): 3.5 µM (active)

O=C(/C=C/c1c(F)cccc1Cl)c1ccc(F)cc1
CC50 [1]: > 40 µM (active)

Clc1ccccc1-c1nnc2sc(-c3cccs3)nn12
IC50 [2]: 2.83 µM (not active)

C=C(C)C(=O)N1CC2(CC(c3cccc(NC(=O)c4ccccc4)c3)=NO2)C[C@@H]1C(N)=O (some centres not stated)
AC50 (Cytochrome P450 2C9): inconclusive

CN(CCCNC(=O)c1cc2c(Cl)nc3ccccc3c2s1)Cc1ccccc1
CC50 [1]: 22.2 µM (active) | EC50 [3]: > 60 µM (not active) | EC50 [4]: 0.771 µM (active)

S=C(NCc1ccco1)N/N=C/c1ccccc1Cl
IC50 [2]: 2.44 µM (not active)

O=C(OCC#CCSc1nc2ccccc2o1)c1ccco1
IC50 (cells): 10 µM (active)

Nc1c2c(nc3ccccc13)CCC[C@H]2O
AC50 (Cytochrome P450 2C9): inconclusive

N#Cc1c(Cl)cccc1Oc1ccc(S(=O)(=O)Nc2ccccc2)cc1
IC50 [2]: > 50 µM (not active)

CCOC(=O)CNc1c(-c2ccc(O)cc2)nc2ccccn12
IC50 (Large T antigen): 14.7 µM (active)

CC(C)(C)OC(=O)[C@H]1[C@H](c2ccc([N+](=O)[O-])cc2)C2(C(=O)c3ccccc3C2=O)C2c3ccccc3C=NN21 (some centres not stated)
IC50 (Leucine aminopeptidase): 2.23 µM (active)

Cc1cc(C)cc(NC(=O)C2CCN(c3nc(C)cc(C)n3)CC2)c1
IC50 (Leucine aminopeptidase): 105 µM (active)

O=C(CNCc1ccccc1)Nc1ccc(Oc2ccccc2)cc1
IC50 [2]: > 50 µM (not active)

O=C(CN1C(=O)c2ccccc2C1=O)Nc1ccc(-c2nc3ccccc3o2)cc1
IC50 [2]: 17.9 µM (not active)

C(=N\Nc1ccc2ccccc2n1)/c1ccc2c(c1)OCCO2
EC50 [5]: < 0.16 µM (active) | CC50 [1]: > 40 µM (active)

COc1ccc(C)cc1Nc1n[n+](-c2ccccc2)c(-c2c(Cl)cccc2Cl)s1
EC50 [6]: > 120 µM (not active) | CC50 [1]: 9.91 µM (active) | EC50 [7]: 12.6 µM (active) | EC50 [8]: > 120 µM (not active) | AC50 (INS1): 4.16 µM (active)

CC1CCCN(Cc2c(O)ccc3c(O)c(-c4nc5ccccc5s4)c(=N)oc23)C1 (configuration not stated)
EC50 [9]: > 38 µM (not active) | CC50 [1]: 17.2 µM (active) | EC50 [10]: 18.9 µM (active) | EC50 [11]: 13.9 µM (active) | EC50 [12]: 76.2 µM (active)

CN(CC(=O)Nc1ccc(N2CCOCC2)cc1)Cc1cc(=O)n2ccsc2n1
IC50 [2]: < 0.4 µM (not active)

C/C(=N/NC(=O)c1cc(-c2cccc([N+](=O)[O-])c2)[nH]n1)c1ccc(Cl)cc1
IC50 [2]: 13.6 µM (not active)

O=C(OCC(=O)N1CCN(c2ccccc2)CC1)c1ccc2ccccc2n1
IC50 (cells): 16.3 µM (active)

CNc1nc(-c2c(C)noc2C)nc2ccccc12
AC50 (Cytochrome P450 2C9): inconclusive | AC50 (Cytochrome P450 2C19): 3.98 µM (inconclusive) | AC50 (Cytochrome P450 3A4): 12.6 µM (inconclusive)

Oc1cc(-c2ccccc2)nc2nc(SCc3ccccc3)nn12
IC50 (Leucine aminopeptidase): 5.04 µM (active)

O=C(Oc1cccnc1)c1ccc(Cl)c(Cl)c1
IC50 (cells): 1.31 µM (active)

CCOC(=O)Cn1c(-c2ccccc2)ccc(C#N)c1=O
IC50 (cells): 7.5 µM (active)

OC[C@H]1CC[C@@H]2O[C@H](CCc3ccc(-c4ccc(F)cc4)cc3)[C@H](n3cc(C4CC4)nn3)C[C@@H]2O1
AC50 [13]: 5 µM (active)

N#CC1=C2SCN(Cc3ccco3)CN2C(=O)CC1c1c(F)cccc1Cl (configuration not stated)
IC50 (Large T antigen): 84.4 µM (active)

CCNC(=O)c1cc2c(c(-c3cccc(-c4cc5ccccc5o4)c3)n1)[C@@H](CCO)N(C(=O)NC(C)C)C2
AC50 [13]: 6.29 µM (active)

COc1cccc2cc(C(=O)CC3(O)C(=O)N(Cc4ccccc4)c4ccccc43)c(=O)oc12 (configuration not stated)
AC50 (Cytochrome P450 2C9): inconclusive

Cc1ccc(NC(=O)c2ccc(C(C)(C)C)cc2)cc1-n1cnnn1
IC50 [2]: 0.895 µM (not active)

Cc1ccc(NC(=O)CCSc2nnc(Cc3ccccc3)o2)cc1
IC50 (cells): 18.2 µM (active)

Cc1ccc(-n2c(=O)c3c4c(sc3n3c(S)nnc23)CCC4)cc1
IC50 (Large T antigen): 30.9 µM (active)

CC(C)Cn1c(N)c(C(=O)COC(=O)/C=C/c2cccs2)c(=O)n(C)c1=O
IC50 [2]: > 50 µM (not active)

OC(COc1cccc2ccccc12)CN1CCN(c2ccccc2Cl)CC1 (configuration not stated)
IC50 [2]: 3.82 µM (not active)

C=CCn1c(Sc2nc(C)cs2)nc2c1c(=O)[nH]c(=O)n2C
IC50 [2]: > 50 µM (not active) | CC50 [14]: 32.4 µM (active)

FC(F)(F)C1CCCN(c2nsc3ccccc23)C1 (configuration not stated)
IC50 (Large T antigen): 13 µM (active)

COc1ccc(OCCCn2cccc2/C=C2/C(=N)N3OC(C)=CC3=NC2=O)cc1
IC50 (Leucine aminopeptidase): 10.9 µM (active)

CNc1ccccc1C(=O)OC(C)C(=O)Nc1ccc(Cl)cn1 (configuration not stated)
CC50 [1]: 25.3 µM (active)

CCN(CC)c1ccc(NC(=O)CCNS(=O)(=O)c2ccc3c(c2)CCC(=O)N3)c(C)c1
AC50 [15]: 1.09 µM (active) | IC50 (Large T antigen): 42.6 µM (active)

COc1ccc2c3c([nH]c2c1)[C@@H](CO)N(S(C)(=O)=O)CC31CCN(Cc2cccc(F)c2)CC1
AC50 [13]: 4.86 µM (active)

Cc1cccc(C)c1OCC(O)CN1CCC(CN2C(=O)c3cccc4cccc(c34)C2=O)CC1 (configuration not stated)
CC50 [14]: 7.63 µM (active) | CC50 [1]: 23.4 µM (active) | EC50 (Streptococcus): 16.7 µM (active) | EC50 [10]: 9.53 µM (active) | EC50 [16]: 9.04 µM (active) | EC50 [11]: 11.7 µM (active) | EC50 (Streptokinase A): 38.2 µM (active)
